For nine compounds, GI50 and TGI results are on record in PubChem BioAssay (NCI).

Among the test systems are SNB-19 CNS; A498 renal; HL-60(TB) leukemia; HCT-116 colon; KM12 colon; NCI-H522 lung; SF-268 CNS; PC-3 prostate.
Experiment in all cases: NCI anticancer screen, dose series, 48 h

Where “and” joins values, the source holds several entries; their conditions need not be identical. Identical values can stand only once.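 Step 1: Grow cells in 96-well plates. Step 2: Expose to compound for 48 hours at 5 concentrations. Step 3: Interpolate endpoints linearly; if unreached, use highest concentration. GI50 = concentration required for 50% inhibition of growth. TGI denotes the concentration required for complete inhibition of growth.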

`CCN(Cc1ccc(Cl)c(Cl)c1)c1ccc2nc(N)nc(N)c2c1C`: the GI50 is 0.0141 µM in the test with SNB-19 CNS; 0.785 µM in the test with A498 renal; 0.195 µM in the test on HL-60(TB) leukemia; less than 0.01 µM in the test with HCT-116 colon; 0.048 µM with KM12 colon; 0.0378 µM with NCI-H522 lung. Also, the values for the GI50 in the test on SF-268 CNS and with PC-3 prostate were 0.0351 µM and 0.0284 µM, respectively. In addition, the TGI came to 1.51 µM in the test on SNB-19 CNS; 3.63 µM in the test on A498 renal; 2.54 µM in the test with HL-60(TB) leukemia; 1.51 µM in the test with HCT-116 colon; 1.67 µM with KM12 colon; 1.82 µM in the test with NCI-H522 lung. For the same compound, the TGI in the test with SF-268 CNS stood at 1.69 µM; in the test on PC-3 prostate, 3.16 µM.

`O=CNC(Cc1cnc[nH]1)C(=O)O` (stereo unspecified): the TGI in the test with SNB-19 CNS, in the test on A498 renal, in the test on HL-60(TB) leukemia, in the test on HCT-116 colon, in the test with KM12 colon and in the test with NCI-H522 lung was more than 100 µM in each case. Also, the TGI with SF-268 CNS and in the test on PC-3 prostate was more than 100 µM in each case.

Turning to `COc1ccc(C2=C(c3ccc(OC)cc3)C(=O)OC2)cc1`, the GI50 in the test with SNB-19 CNS was 2.34 µM; in the test with A498 renal it was 0.528 µM; in the test with HL-60(TB) leukemia, 0.525 µM; in the test on HCT-116 colon, 1.97 µM; with KM12 colon it was 0.555 µM; in the test on NCI-H522 lung it was 0.342 µM. The GI50 was 1.52 µM in the test on SF-268 CNS and 5.19 µM in the test with PC-3 prostate. In addition, the TGI is more than 100 µM in the test with SNB-19 CNS; 3.66 µM in the test with A498 renal; 4.58 µM in the test on HL-60(TB) leukemia; 11.8 µM in the test with HCT-116 colon; more than 37.7 µM in the test with KM12 colon; 1.85 µM in the test on NCI-H522 lung. Moreover, the TGI in the test on SF-268 CNS amounted to 27.6 µM; in the test on PC-3 prostate it was 44.1 µM.

On to `CN(C)S(=O)(=O)c1cccc(C(=O)Nc2nc(-c3ccc(F)c(F)c3)cs2)c1`, for which the GI50 is 35.4 µM in the test on SNB-19 CNS; 16.9 µM in the test on A498 renal; 6.08 µM with HL-60(TB) leukemia; 7.62 µM in the test on HCT-116 colon; 24.2 µM in the test with KM12 colon; 5.71 µM with NCI-H522 lung. Moreover, the GI50 with SF-268 CNS is 13.9 µM; in the test on PC-3 prostate, 5.96 µM. Also, the TGI in the test with SNB-19 CNS, with A498 renal, in the test with HL-60(TB) leukemia, in the test on HCT-116 colon, in the test on KM12 colon and in the test with NCI-H522 lung was more than 100 µM throughout. Moreover, the TGI in the test on SF-268 CNS and in the test with PC-3 prostate was more than 100 µM throughout.

Take `COc1ccc(-n2cc(-c3cc(OC)c(OC)c(OC)c3)nc2SCc2cccc(C#N)c2)cc1OC`: the GI50 in the test with SNB-19 CNS was more than 100 µM; in the test with A498 renal it was more than 100 µM; in the test on HL-60(TB) leukemia, more than 100 µM; with HCT-116 colon, 46 µM; with KM12 colon it was more than 100 µM; in the test with NCI-H522 lung, 90 µM. Also, the GI50 is 95.8 µM in the test on SF-268 CNS and 59.8 µM in the test with PC-3 prostate. The TGI in the test with SNB-19 CNS, in the test with A498 renal, with HL-60(TB) leukemia, in the test with HCT-116 colon, in the test on KM12 colon and in the test with NCI-H522 lung was more than 100 µM throughout. Also, the TGI in the test with SF-268 CNS and in the test on PC-3 prostate was more than 100 µM each time.

In the case of `CCc1nc(N)nc(N)c1C#CC(C)c1ccc(-c2ccncc2)cc1Cl` (stereo unspecified), the GI50 in the test on SNB-19 CNS was 0.0394 µM and 0.0796 µM; with A498 renal it was 0.109 µM and 0.223 µM; in the test on HL-60(TB) leukemia, 0.0226 µM and 0.0298 µM; in the test on HCT-116 colon it was less than 0.005 µM; with KM12 colon, 0.0271 µM and 0.0678 µM; with NCI-H522 lung, 0.0477 µM and 0.0346 µM. Also, the GI50 was 0.0287 µM and 0.0682 µM in the test with SF-268 CNS; less than 0.005 µM with PC-3 prostate. Besides, the TGI is 6.69 µM and 15.2 µM in the test with SNB-19 CNS; 1.64 µM and 5.81 µM in the test on A498 renal; 1.75 µM and 2.61 µM in the test with HL-60(TB) leukemia; 2.77 µM and 13 µM with HCT-116 colon; 5.73 µM and 14.5 µM in the test on KM12 colon; 2.97 µM and 4.06 µM in the test on NCI-H522 lung. For the same compound, the TGI with SF-268 CNS is 3.2 µM and 16.8 µM; in the test with PC-3 prostate, 4.85 µM and 12.5 µM.

As for `Cc1cc(NC(=O)NCCOc2ccc(N3C(N)=NC(N)=NC3(C)C)cc2Cl)ccc1S(=O)(=O)F`, the GI50 in the test on SNB-19 CNS was 4.31 µM; in the test with A498 renal, 10.2 µM; in the test with HL-60(TB) leukemia it was 1.8 µM; in the test with HCT-116 colon, 0.545 µM; in the test on KM12 colon, 1.04 µM; in the test on NCI-H522 lung, 2.54 µM. In addition, the values for the GI50 in the test with SF-268 CNS and with PC-3 prostate were 1.64 µM and 0.143 µM, respectively. Also, the TGI in the test on SNB-19 CNS was more than 100 µM; in the test on A498 renal, more than 100 µM; in the test on HL-60(TB) leukemia it was 36.8 µM; in the test with HCT-116 colon it was more than 100 µM; with KM12 colon it was more than 44.3 µM; in the test with NCI-H522 lung, 17.7 µM. The values for the TGI in the test with SF-268 CNS and with PC-3 prostate were 99.5 µM and 22.3 µM, respectively.

Take `CN1CCN(C2=C(Cl)C(=O)c3ccccc3C2=O)CC1`: the GI50 is 4.08 µM in the test with SNB-19 CNS; 0.0132 µM with A498 renal; 2.39 µM with HL-60(TB) leukemia; 1.42 µM with HCT-116 colon; 5.27 µM with KM12 colon; 0.38 µM with NCI-H522 lung. Moreover, the values for the GI50 in the test with SF-268 CNS and in the test with PC-3 prostate were 2.82 µM and 3.45 µM, respectively. Besides, the TGI in the test on SNB-19 CNS was 15.3 µM; with A498 renal it was 4.25 µM; in the test with HL-60(TB) leukemia, 5.84 µM; with HCT-116 colon it was 2.75 µM; in the test with KM12 colon, 16.7 µM; in the test with NCI-H522 lung, 1.64 µM. The TGI worked out at 10.9 µM in the test on SF-268 CNS and 8.91 µM in the test with PC-3 prostate.

On to `COc1ccc(C2=Nn3c(nnc3-c3ccc(F)c(Cl)c3)SC2)cc1`, for which the GI50 in the test with SNB-19 CNS was more than 100 µM; in the test on A498 renal it was more than 100 µM; with HL-60(TB) leukemia it was more than 100 µM; in the test on HCT-116 colon, 61.6 µM; with KM12 colon, more than 100 µM; with NCI-H522 lung it was more than 100 µM. The GI50 with SF-268 CNS and in the test on PC-3 prostate was more than 100 µM in each case. The TGI with SNB-19 CNS, with A498 renal, with HL-60(TB) leukemia, in the test with HCT-116 colon, in the test on KM12 colon and in the test on NCI-H522 lung was more than 100 µM throughout. Moreover, the TGI in the test on SF-268 CNS and with PC-3 prostate was more than 100 µM throughout.
